Results taken from article PMC9411704, “Assessment of the Carcinogenic Potential of Pretomanid in Transgenic Tg.rasH2 Mice” (International Journal of Toxicology, 2022).
Like-named read-outs stand apart in the source and are kept apart here.

How the values were obtained:
[1] = Toxicokinetic assessment in wild-type CByB6F1 mice (Day 14); type: in vivo
Experimental: TK animals were included for the vehicle control (n = 4 sex) and pretomanid-treated groups (n = 10 sex/group). The TK cohort animals were dosed by oral gavage once daily for 14 consecutive days.
Toxicokinetic blood samples (300 μL for males and 250 μL for females) were collected in K3EDTA tubes after 14 doses from the TK cohort via retro-orbital bleeding under 70% CO2/30% O2 anesthesia. On Day 14, control mice were bled once 2 hours after dosing. On Day 14 and 15, Pretomanid-treated mice were bled predose, 0.5, 1, 3, 6, and 24 hours post dose. TK animals were euthanized after their final blood collection.
Collected blood was stored on wet ice until the samples were processed to plasma. Blood samples were centrifuged at 4±2°C and 8000 g for 5 minutes. Plasma was snap frozen in liquid nitrogen and stored in a deep freezer (≤−60°C) within 60 minutes of bleeding the TK animals.
Pretomanid and the M50 metabolite were quantified in mouse plasma by liquid chromatography-tandem mass spectrometry (LC-MS/MS) after protein precipitation. Aliquots of 25 µL of plasma were spiked with internal standards (PA-824-d5 or morphine) and proteins were precipitated in 1% formic acid in acetonitrile. A partial supernatant from each sample was transferred to a clean plate and diluted in acetonitrile/water (40:60) for pretomanid and deionized water for M50. Supernatant was analyzed for pretomanid or M50 using validated LC-MS/MS methods with a linear range of 20 to 10,000 ng/mL for pretomanid and 10 to 5,000 ng/mL for M50 (methods validated at Alliance Pharma, Malvern PA).
Sample collection time and plasma concentration data were analyzed to derive TK parameters by standard model independent methods based on the mean plasma concentration-time data for each dose group. The TK analyses of the plasma concentration profiles were performed using non-compartmental analysis in Phoenix WinNonlin Professional 7.0 (Certara, L.P., St. Louis, MO, USA). Concentration values below the lower limit of quantitation were treated as zeros for analysis purposes.

[2] = test system: Salmonella typhimurium TA100; assay: Bacterial reverse mutation (Ames) assay, plate incorporation; type: cell-based
Experimental: (§1) Pretomanid and metabolite M50 were evaluated over a range of concentrations, with and without an added metabolic activation system, in five tester strains: Salmonella typhimurium histidine auxotrophs TA98, TA100, TA1535, and TA1537 [9] and the Escherichia coli tryptophan auxotroph WP2uvrA. S. typhimurium strains were received from Dr. Bruce Ames, Department of Biochemistry, University of California (Berkeley, CA). The E. coli strain was received from The National Collection of Industrial Bacteria, Torrey Research Station, Aberdeen, Scotland (United Kingdom). The metabolic activation system was a liver homogenate (S9) mix. The S9 component was prepared from male Sprague-Dawley rats that had been injected (intraperitoneally) with Aroclor^TM 1254 at 500 mg/kg, 5 days before sacrifice. The S9 mix was prepared immediately before use and contained 10% S9, 5 mM glucose-6-phosphate, 4 mM β-nicotinamide adenine dinucleotide phosphate, 8 mM MgCl2 and 33 mM KCl in a 100 mM phosphate buffer at pH 7.4. Pretomanid was tested at 0.05 to 5000 μg/plate. Metabolite M50 was tested at 78 to 2500 μg/plate. A negative (solvent) control culture and appropriate positive control cultures were included in each assay.
(§2) Bacteria were exposed to test materials by the plate incorporation method originally described by Ames et al and updated by Maron and Ames. Bottom agar was Vogel-Bonner minimal medium E [12] with 1.5% (w/v) agar, and the top Agar was 0.7% (w/v) agar and 0.5% (w/v) NaCl. After incubation, cultures were evaluated using a dissecting microscope for precipitation or cytotoxicity, and revertant colonies were counted. The mean numbers of revertant colonies in various cultures were compared to reach conclusions about assay validity and mutagenic potential. For the test article to be evaluated positive, it must cause a dose-related increase in the mean revertants per plate of at least one tester strain with a minimum of two increasing concentrations of test article.

[3] = test system: Salmonella typhimurium TA1537; assay: as above; type: cell-based
Experimental: as §1, §2

[4] = test system: Salmonella typhimurium TA98; assay: as above; type: cell-based
Experimental: as §1, §2

[5] = test system: Salmonella typhimurium TA1535; assay: as above; type: cell-based
Experimental: as §1, §2

[6] = test system: Salmonella typhimurium TA98, TA100, TA1535, TA1537 and Escherichia coli WP2uvrA; assay: Bacterial reverse mutation (Ames) assay, overall over five tester strains; type: cell-based; conditions: up to 5000 μg/plate
Experimental: as §1, §2

[7] = test system: Escherichia coli WP2uvrA; assay: Bacterial reverse mutation (Ames) assay, plate incorporation
Experimental: as §1, §2

With `O=[N+]([O-])c1cn2c(n1)OC[C@@H](OCc1ccc(OC(F)(F)F)cc1)C2` [Pretomanid, (6S)-2-nitro-6-{[4-(trifluoromethoxy)benzyl]oxy}-6,7-dihydro-5H-imidazo[2,1-b][1,3]oxazine] the AUC(0-t) ([1]; CByB6F1 (wild-type), mouse, female, pretomanid 10 mg/kg/day oral, Day 14, plasma, read-out: Pretomanid AUC0-24) was 24900 ng·h/mL, the Cmax ([1]; CByB6F1 (wild-type), mouse, female, pretomanid 30 mg/kg/day oral, Day 14, plasma) was 6900 ng/mL and the AUC(0-t) ([1]; CByB6F1 (wild-type), mouse, female, pretomanid 30 mg/kg/day oral, Day 14, plasma, read-out: Pretomanid AUC0-24) was 87500 ng·h/mL. The Cmax ([1]; CByB6F1 (wild-type), mouse, female, pretomanid 80 mg/kg/day oral, Day 14, plasma) was 16200 ng/mL, the AUC(0-t) ([1]; CByB6F1 (wild-type), mouse, female, pretomanid 80 mg/kg/day oral, Day 14, plasma, read-out: Pretomanid AUC0-24) was 186000 ng·h/mL and the “Exposure to pretomanid relative to exposure to the M50 metabolite” value ([1]; Day 14, all dose levels, both sexes) was “more than 10 times”. It also gave an AUC(0-t) ([1]; both sexes, CByB6F1 (wild-type), mouse, plasma, oral, high dose (40 male, 80 female mg/kg/day), read-out: Gender averaged mouse AUC0-24 of pretomanid) of 149000 ng·h/mL, a Cmax ([1]; wild-type CByB6F1, mouse, female, pretomanid 10 mg/kg/day oral, Day 14, plasma) of 2900 ng/mL and a Cmax ([1]; wild-type CByB6F1, mouse, male, pretomanid 5 mg/kg/day oral, Day 14, plasma) of 1800 ng/mL. For the same molecule, the AUC(0-t) ([1]; wild-type CByB6F1, mouse, male, pretomanid 5 mg/kg/day oral, Day 14, plasma, read-out: Pretomanid AUC0-24) was 13700 ng·h/mL, the Cmax ([1]; wild-type CByB6F1, mouse, male, pretomanid 15 mg/kg/day oral, Day 14, plasma) was 4900 ng/mL and the AUC(0-t) ([1]; wild-type CByB6F1, mouse, male, pretomanid 15 mg/kg/day oral, Day 14, plasma, read-out: Pretomanid AUC0-24) was 50800 ng·h/mL. The Cmax ([1]; wild-type CByB6F1, mouse, male, pretomanid 40 mg/kg/day oral, Day 14, plasma) was 10400 ng/mL, the AUC(0-t) ([1]; wild-type CByB6F1, mouse, male, pretomanid 40 mg/kg/day oral, Day 14, plasma, read-out: Pretomanid AUC0-24) was 112000 ng·h/mL and the “Mean Number of Revertants/Plate” value ([2]; TA100 +S9, 100 μg/plate) was 137 Revertants/Plate. For the same molecule, the “Mean Number of Revertants/Plate” value ([2]; TA100 +S9, 333 μg/plate) was 179 Revertants/Plate, the “Mean Number of Revertants/Plate” value ([2]; TA100 +S9, 1000 μg/plate) was 173 Revertants/Plate and the “Mean Number of Revertants/Plate” value ([2]; TA100 +S9, 3333 μg/plate) was 166 Revertants/Plate. The “Mean Number of Revertants/Plate” value ([2]; TA100 +S9, 5000 μg/plate) was 179 Revertants/Plate, the “Mean Number of Revertants/Plate” value ([2]; TA100 −S9, 100 μg/plate) was 119 Revertants/Plate and the “Mean Number of Revertants/Plate” value ([2]; TA100 −S9, 333 μg/plate) was 107 Revertants/Plate. For the same molecule, the “Mean Number of Revertants/Plate” value ([2]; TA100 −S9, 1000 μg/plate) was 115 Revertants/Plate, the “Mean Number of Revertants/Plate” value ([2]; TA100 −S9, 3333 μg/plate) was 99 Revertants/Plate and the “Mean Number of Revertants/Plate” value ([2]; TA100 −S9, 5000 μg/plate) was 106 Revertants/Plate. The “Mean Number of Revertants/Plate” value ([3]; TA1537 +S9, 100 μg/plate) was 9 Revertants/Plate, the “Mean Number of Revertants/Plate” value ([3]; TA1537 +S9, 333 μg/plate) was 6 Revertants/Plate and the “Mean Number of Revertants/Plate” value ([3]; TA1537 +S9, 1000 μg/plate) was 5 Revertants/Plate. The “Mean Number of Revertants/Plate” value ([3]; TA1537 +S9, 3333 μg/plate) was 5 Revertants/Plate, the “Mean Number of Revertants/Plate” value ([3]; TA1537 +S9, 5000 μg/plate) was 4 Revertants/Plate and the “Mean Number of Revertants/Plate” value ([3]; TA1537 −S9, 100 μg/plate) was 5 Revertants/Plate. For the same molecule, the “Mean Number of Revertants/Plate” value ([3]; TA1537 −S9, 333 μg/plate) was 5 Revertants/Plate, the “Mean Number of Revertants/Plate” value ([3]; TA1537 −S9, 1000 μg/plate) was 10 Revertants/Plate and the “Mean Number of Revertants/Plate” value ([3]; TA1537 −S9, 3333 μg/plate) was 5 Revertants/Plate. The “Mean Number of Revertants/Plate” value ([3]; TA1537 −S9, 5000 μg/plate) was 5 Revertants/Plate, the “Mean Number of Revertants/Plate” value ([4]; TA98 +S9, 100 μg/plate) was 22 Revertants/Plate and the “Mean Number of Revertants/Plate” value ([4]; TA98 +S9, 333 μg/plate) was 26 Revertants/Plate. The “Mean Number of Revertants/Plate” value ([4]; TA98 +S9, 1000 μg/plate) was 23 Revertants/Plate, the “Mean Number of Revertants/Plate” value ([4]; TA98 +S9, 3333 μg/plate) was 16 Revertants/Plate and the “Mean Number of Revertants/Plate” value ([4]; TA98 +S9, 5000 μg/plate) was 22 Revertants/Plate. For the same molecule, the “Mean Number of Revertants/Plate” value ([4]; TA98 −S9, 100 μg/plate) was 25 Revertants/Plate, the “Mean Number of Revertants/Plate” value ([4]; TA98 −S9, 333 μg/plate) was 12 Revertants/Plate and the “Mean Number of Revertants/Plate” value ([4]; TA98 −S9, 1000 μg/plate) was 18 Revertants/Plate. For the same molecule, the “Mean Number of Revertants/Plate” value ([4]; TA98 −S9, 3333 μg/plate) was 17 Revertants/Plate, the “Mean Number of Revertants/Plate” value ([4]; TA98 −S9, 5000 μg/plate) was 15 Revertants/Plate and the “Mean Number of Revertants/Plate” value ([5]; TA1535 +S9, 100 μg/plate) was 12 Revertants/Plate. For the same molecule, the “Mean Number of Revertants/Plate” value ([5]; TA1535 +S9, 333 μg/plate) was 13 Revertants/Plate, the “Mean Number of Revertants/Plate” value ([5]; TA1535 +S9, 1000 μg/plate) was 10 Revertants/Plate and the “Mean Number of Revertants/Plate” value ([5]; TA1535 +S9, 3333 μg/plate) was 11 Revertants/Plate. The “Mean Number of Revertants/Plate” value ([5]; TA1535 +S9, 5000 μg/plate) was 14 Revertants/Plate, the “Mean Number of Revertants/Plate” value ([5]; TA1535 −S9, 100 μg/plate) was 9 Revertants/Plate and the “Mean Number of Revertants/Plate” value ([5]; TA1535 −S9, 333 μg/plate) was 10 Revertants/Plate. The “Mean Number of Revertants/Plate” value ([5]; TA1535 −S9, 1000 μg/plate) was 10 Revertants/Plate, the “Mean Number of Revertants/Plate” value ([5]; TA1535 −S9, 3333 μg/plate) was 8 Revertants/Plate and the “Mean Number of Revertants/Plate” value ([5]; TA1535 −S9, 5000 μg/plate) was 7 Revertants/Plate. For the same molecule, the “Change in number of revertant colonies” value ([6]; any tester strain under any conditions) was “did not cause a significant increase”, the “Cytotoxicity in the Ames assay” value [6] was “no appreciable cytotoxicity” and the Mutagenic potential ([6]; with and without S9) was “negative”. For the same molecule, the “Mean Number of Revertants/Plate” value ([7]; WP2uvrA +S9, 100 μg/plate) was 16 Revertants/Plate, the “Mean Number of Revertants/Plate” value ([7]; WP2uvrA +S9, 333 μg/plate) was 17 Revertants/Plate and the “Mean Number of Revertants/Plate” value ([7]; WP2uvrA +S9, 1000 μg/plate) was 15 Revertants/Plate. For the same molecule, the “Mean Number of Revertants/Plate” value ([7]; WP2uvrA +S9, 3333 μg/plate) was 10 Revertants/Plate, the “Mean Number of Revertants/Plate” value ([7]; WP2uvrA +S9, 5000 μg/plate) was 14 Revertants/Plate and the “Mean Number of Revertants/Plate” value ([7]; WP2uvrA −S9, 100 μg/plate) was 23 Revertants/Plate. For the same molecule, the “Mean Number of Revertants/Plate” value ([7]; WP2uvrA −S9, 333 μg/plate) was 21 Revertants/Plate, the “Mean Number of Revertants/Plate” value ([7]; WP2uvrA −S9, 1000 μg/plate) was 17 Revertants/Plate and the “Mean Number of Revertants/Plate” value ([7]; WP2uvrA −S9, 3333 μg/plate) was 11 Revertants/Plate. For the same molecule, the “Mean Number of Revertants/Plate” value ([7]; WP2uvrA −S9, 5000 μg/plate) was 16 Revertants/Plate.
